Test results published in patent US20040038968A1, “Thiazolidinedione derivative and its use as antidiabetic” (priority 2000, published 2004).

Legend:
[1] = Solubility in water (visual, confirmed by HPLC assay of a saturated solution); type: physicochemical; conditions: thermodynamic from solid
Method: The solubility of the material was determined by adding water in aliquots from […] to approximately 100 mg of drug substance until the powder had dissolved. The visual solubility was confirmed by an HPLC assay of a saturated solution. Solubility: >100 mg/ml.

[2] = Solid state stability (storage for 1 month, HPLC assay); type: physicochemical; conditions: glass bottle
Method: The solid state stability of the drug substance was determined by storing approximately 1.0 g of the material in a glass bottle at a) 40° C./75 % Relative Humidity (RH), open exposure, for 1 month and b) at 50° C., closed, for 1 month. The material was assayed by HPLC for final content and degradation products in both cases.

## CN(CCOc1ccc(CC2SC(=O)NC2=O)cc1)c1ccccn1.[K] (centres unmarked) [Potassium Salt, 5-[4-[2-(N-Methyl-N-(2-pyridyl)amino)ethoxy]benzyl]thiazolidine-2,4-dione, potassium salt]
[1]
  solubility: > 100 mg/mL
[2]; 40° C./75% RH, open exposure
  Degradation (HPLC, degradation products): No significant degradation observed
  HPLC assay for final content: 101 % initial
[2]; 50° C., closed
  Degradation (HPLC, degradation products): No significant degradation observed
  HPLC assay for final content: 99 % initial
